The values that follow come from US8357379B2, “High concentration baclofen preparations” (Board of Regents, The University of Texas System, priority 2004, dated 2013).

The nature of data set [1]: Time to complete dissolution during preparation of high concentration solutions. In kind it is physicochemical. As to the method: Solubilization of Baclofen by Heat and Sonication. Appropriate amounts of baclofen were weighed and added to appropriate volumes of normal saline in order to produce mixtures containing 4, 5, 6, 8 or 10 mg/mL baclofen. All samples had undissolved baclofen powder present immediately after mixing. Samples having concentrations of 4, 5 or 6 mg/mL of baclofen were heated to 70° C. Samples having concentrations of 8 and 10 mg/mL of baclofen were heated to 95° C. Intense agitation was applied to all of the samples by sonicating the samples during the heating step. Heating and sonication were continued until all of the powder dissolved, and a clear solution with no residual particulate matter resulted. For the 4, 5, and 6 mg/mL samples, this occurred in about 20 to 30 minutes. […] Again, the solutions were clear with no residual particulate matter.
Solubilization of Baclofen by Heat and High-Speed Stirring. Appropriate amounts of baclofen were weighed and added to appropriate volumes of normal saline in order to produce mixtures containing 4, 5, 6, 8 or 10 mg/mL baclofen. All samples had undissolved baclofen powder present immediately after mixing. Samples having concentrations of 4, 5 or 6 mg/mL of baclofen were heated to 70° C. Samples having concentrations of 8 and 10 mg/mL of baclofen were heated to 95° C. Intense agitation was applied to all of the samples by high-speed stirring. A high-speed stir bar was placed in each of the containers for each of the baclofen concentrations was stirred using a Thermolyne stirrer at a speed of about 600 rpm while the solutions were heated. This was designed to simulate the use of a high-speed high shear mixer in a larger industrial setting. Again the heating at 70° C. for the 4, 5, and 6 mg/mL concentrations and to 95° C. for the 8 and 10 mg/mL concentrations and high-speed stirring were continued until all of the powder had dissolved and a clear solution with no residual particulate matter resulted. This occurred within about 20 minutes with all samples.
Acidification with Back Titration. Baclofen concentrations of 4, 5, 6, 8, and 10 mg/mL were prepared by dissolving appropriate amounts of baclofen powder in 0.1 N hydrochloric acid. […] The solutions were then back titrated with 0.1 N sodium hydroxide to reach a pH about 5.0 to 5.1, which is within the current product pH range for commercial baclofen solutions, and brought to volume with 0.9% sodium chloride. After complete dissolution had occurred, the solutions were filtered through 0.22-micron sterilizing filters into sterile empty vials. The vials were stored at room temperature, under refrigeration, and at 37° C. to simulate “in use” conditions in an implanted pump.
Alkalinization with Back Titration. Baclofen concentrations of 4, 5, 6, 8, and 10 mg/mL were prepared by dissolving appropriate amounts of baclofen powder in 0.1 N sodium hydroxide. […] The solutions were then back titrated with 0.1 N hydrochloric acid to reach a pH about 6.9 to 7.0, which is within the current product range, and brought to volume with 0.9% sodium chloride. After complete dissolution had occurred, the solutions were filtered through 0.22-micron sterilizing filters into sterile empty vials. The vials were stored at room temperature, under refrigeration, and at 37° C. to simulate “in use” conditions in an implanted pump.

The nature of data set [2]: Stability-indicating HPLC analysis of baclofen concentration / chemical stability. The data set is classed as physicochemical. Particulars: for Chemical Stability (% Remaining): room temperature. As to the method:
The test solutions in vials and syringes are thoroughly mixed prior to sampling. A 1-mL sample of each test solution from three test syringes and three test vials is collected and chemically analyzed. […] Triplicate HPLC determinations are performed at each time point if needed to determine the maximum stability of baclofen. The contents of the remaining containers are visually inspected at each assay time point and 6-mL samples are collected and fully evaluated for physical stability as indicated under Physical Stability Evaluation above after 1, 3, 7, 14, 21, 30 and 60 days.
HPLC Analysis to Confirm Baclofen Concentration. A stability-indicating HPLC analytical method adapted from published methods was used to determine the concentration of the baclofen samples evaluated in this testing (Sitaram et al., 1997; Gupta et al., 1998; Johnson C E, et al., 1993; Allen L V, et al., 1996. This method was used to document that at the higher concentrations the entire amount of baclofen had dissolved, and the solutions were near the target concentrations. All tested sample solutions were filtered through 0.22-micron filters to remove remaining undissolved drug, if any, prior to analysis. The HPLC analytical method used is cited in Tables 1 and 2. […] Initial baclofen concentrations for the nominally 4, 5, 6, and 8 mg/mL test solutions were within 93 to 104% of the target concentrations.
The liquid chromatograph is a Waters LC Module-1 Plus having a multisolvent pump, variable wavelength UV detector, and autosampler in one unit. The system is also controlled and integrated by a personal computer running chromatography management software.

For data set [3] the following is noted: aqueous solution, room temperature, neutral pH (pH 6 to 7); calculated (Ahuja, 1985); cited from earlier work.

SMILES strings stand for the structures. Marks after values point to notes of the source that are not given here. Bounds are passed on as bounds.

For the compound `NCC(CC(=O)O)c1ccc(Cl)cc1` (centres unmarked) [Baclofen, 4-amino-3-(p-chlorophenyl) butyric acid], the “time until all powder dissolved (clear solution)” value was at most 20 min in data set [1] (4, 5, 6 mg/mL at 70° C. and 8, 10 mg/mL at 95° C., normal saline, high-speed stirring about 600 rpm (Example 2)); 20 to 30 min in data set [1] (4, 5, and 6 mg/mL in normal saline, 70° C., sonication (Example 1)); “about 20 minutes” in data set [1] (8 and 10 mg/mL in normal saline, 95° C., sonication (Example 1)). Besides, the “time until powder dissolved (clear solution)” value in data set [1] (4, 5, 6, 8, and 10 mg/mL in 0.1 N hydrochloric acid (Example 3)) is reported as “within a few minutes”; in data set [1] (4, 5, 6, 8, and 10 mg/mL in 0.1 N sodium hydroxide (Example 4)) it was “within a few minutes”. For the same compound, the “Chemical Stability (% Remaining)” value in data set [2] (3 mg/ml, 24 months, calculated based on concentrations measured at six months) was 101.7 ± 1.0^a % Remaining; in data set [2] (3.5 mg/ml, 24 months, calculated based on concentrations measured at six months), 100.0 ± 0.4^a % Remaining; in data set [2] (4 mg/ml, 12 months), 99.9 ± 0.5 % Remaining; in data set [2] (4 mg/ml, 24 months, calculated based on concentrations measured at six months) it was 99.5 ± 1.2^a % Remaining; in data set [2] (5 mg/ml, 12 months) it was 100.6 ± 0.5 % Remaining; in data set [2] (6 mg/ml, 12 months), 102.9 ± 1.0 % Remaining. In addition, the “loss of drug during storage” value in data set [2] (4 mg/mL, Examples 1 and 2, at least one year at 23° C.) was “no loss of drug”. For the same compound, in data set [2] (nominally 4, 5, 6, and 8 mg/mL test solutions, filtered 0.22-micron, HPLC), the “initial baclofen concentration relative to target concentration” value is listed as 93 to 104%. Further, the “time before there is 10% decomposition of the dissolved baclofen” value in data set [3] is on record as 10 years.
